Laboratory results as given in patent US7579356B2, “Thia-tetraazaacenaphthylene kinase inhibitors” (Janssen Pharmaceutica NV, priority 2005, dated 2009).

Experiments:
Assay type in all cases: biochemical
Lyn kinase (human) = target: T1, Lyn kinase (human) (Homo sapiens, UniProt P07948); assay: Lyn Kinase Assay; details: test concentration of 2 μM
T1 construct: purchased Upstate Biotechnology, Lake Placid, N.Y
Experimental: A mixture of a 10× kinase buffer (500 mM MOPS at pH 7.5, 1 mM EGTA, 1 mM Sodium Vanadate, 1% β-mercaptoethanol and 100 mM Magnesium Acetate), ATP (5 μM final from a 10 mM stock), polyGluTyr (0.1 mg/mL final from a 1 mg/mL stock), γ-^33P ATP (10 μCl/μL stock) and water (for a total of 20 μL/well) was added to each well of a Streptavidin Flashplate.
Test compound in 100% DMSO (0.5 μL) was added to the appropriate wells. Diluted Lyn kinase (human)(Accession Number EMBL M16038) (Upstate Biotechnology, Lake Placid, N.Y.) (diluted in a buffer consisting of 50 mM Tris at pH 7.5, 0.1 mM EGTA, Sodium Vanadate (0.1 mM), β-mercaptoethanol (0.1%) and 1 mg/mL bovine serum albumin) (2.5 μL) was added to the wells to initiate the reactions.
The reaction plates were incubated at 30° C. for 40 min. The reaction was terminated by the addition of a 3% phosphoric acid solution (5 μL). The reaction product (10 μL) was spotted onto a P30 filtermat and washed for 5 minutes in phosphoric acid (75 mM). The wash sequence was repeated two more times, followed with one final wash in methanol. The plates were then dried, sealed and read on the TopCount scintillation counter after adding 30 μL scintillation fluid.
(§1) The Lyn inhibition values were derived according to the procedure described in Example 164 and are shown as percent in Table 3 at a test concentration of 2 μM. For those compounds with an IC50, the IC50 value in μM is shown in parentheses. For compounds with multiple test values, each value represents a separate assay result.

c-Src kinase (human) = target: T2, c-Src kinase (human) (Homo sapiens, UniProt P12931); assay: c-Src Kinase Assay; details: test concentration of 2 μM; multiple values are separate assay results
T2 construct: purchased Upstate Biotechnology, Lake Placid, N.Y
T2 sequence (P12931 whole entry): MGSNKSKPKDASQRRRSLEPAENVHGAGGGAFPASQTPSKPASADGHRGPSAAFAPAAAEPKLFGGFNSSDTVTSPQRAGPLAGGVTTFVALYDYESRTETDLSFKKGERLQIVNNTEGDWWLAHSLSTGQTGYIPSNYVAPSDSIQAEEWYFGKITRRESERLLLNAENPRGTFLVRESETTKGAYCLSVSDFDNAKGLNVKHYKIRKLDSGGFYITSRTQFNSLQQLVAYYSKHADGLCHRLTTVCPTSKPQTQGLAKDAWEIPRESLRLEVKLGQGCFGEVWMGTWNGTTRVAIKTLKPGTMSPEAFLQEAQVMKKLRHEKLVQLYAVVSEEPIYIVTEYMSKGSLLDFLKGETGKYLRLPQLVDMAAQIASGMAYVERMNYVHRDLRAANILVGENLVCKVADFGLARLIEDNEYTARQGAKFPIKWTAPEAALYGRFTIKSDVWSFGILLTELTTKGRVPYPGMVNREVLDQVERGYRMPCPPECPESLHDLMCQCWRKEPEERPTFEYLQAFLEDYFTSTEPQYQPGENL
Experimental: A mixture of a 10× kinase buffer (80 mM MOPS at pH 7.0, 2 mM EDTA and 100 mM Magnesium Chloride), ATP (5 μM final from a 10 mM stock), a Cdc2 peptide KVEKIGEGTYGVVYK (100 μM final from a 2.5 mM stock), γ-^33P ATP (10 μCl/μL stock) and water (for a total of 20 μL/well) was added to each well of a Streptavidin Flashplate.
Test compound in 100% DMSO (0.5 μL) was added to the appropriate wells. Diluted c-Src kinase (human) (Accession Number SWISS-PROT P12931) (Upstate Biotechnology, Lake Placid, N.Y.) (diluted in a buffer consisting of 20 mM MOPS at pH 7.0, 1 mM EDTA, β-mercaptoethanol (0.1%), Brij-35 (0.01%), glycerol (5%), and 1 mg/mL bovine serum albumin) (2.5 μL) was added to the wells to initiate the reactions. The reaction plates were incubated at 30° C. for 40 min. The reaction was terminated by the addition of a 3% phosphoric acid solution (5 μL). The reaction product (10 μL) was spotted onto a P30 filtermat and washed for 5 minutes in phosphoric acid (75 mM). The wash sequence was repeated two more times, followed with one final wash in methanol. The plates were then dried, sealed and read on the TopCount scintillation counter after adding 30 μL scintillation fluid.
as §1, with “c-Src” for “Lyn”, “using” for “according to”, “percent inhibition formula provided” for “procedure described”, “2” for “3”

EGFR = target: T3, EGFR (Homo sapiens, UniProt P00533); assay: EGFR Kinase Assay; details: GST-EGFR, ATP 5 μM
T3 construct: The intracellular portion of EGFR started at nucleotide 2189 (corresponding to amino acid 667) and ended at the termination codon; made in house; host or cells: Sf9 insect cells (baculovirus)
T3 sequence (P00533 669-1210 limits assumed): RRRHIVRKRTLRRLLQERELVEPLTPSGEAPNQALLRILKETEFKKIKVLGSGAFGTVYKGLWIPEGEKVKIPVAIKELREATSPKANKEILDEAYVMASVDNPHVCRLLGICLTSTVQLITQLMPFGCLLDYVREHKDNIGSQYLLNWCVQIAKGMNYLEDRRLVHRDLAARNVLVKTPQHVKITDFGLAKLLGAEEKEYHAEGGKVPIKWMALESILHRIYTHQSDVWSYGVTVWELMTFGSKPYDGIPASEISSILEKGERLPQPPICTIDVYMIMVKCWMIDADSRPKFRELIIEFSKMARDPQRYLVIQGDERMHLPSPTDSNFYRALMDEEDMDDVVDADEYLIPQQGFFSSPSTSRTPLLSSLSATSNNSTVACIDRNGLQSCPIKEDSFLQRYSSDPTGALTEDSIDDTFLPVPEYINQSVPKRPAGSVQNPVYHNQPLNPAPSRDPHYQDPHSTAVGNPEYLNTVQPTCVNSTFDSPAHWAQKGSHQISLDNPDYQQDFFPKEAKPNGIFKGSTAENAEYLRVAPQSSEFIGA
Outline: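 Potency came from triplicate 16-point half-log titrations starting at 200 uM, with IC50 fitted from % inhibition against log concentration, or % inhibition at 2 μM otherwise. Reaction: Sf9-made GST–EGFR cytoplasmic region (aa 667 onward), biotin-polyGluTyr, 5 μM ATP with 33P tracer, pH 8.0 Tris/Mg/vanadate/DTT, 30 °C for 1 h; captured on streptavidin Flashplates and counted.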

HER-2 = target: T4, HER-2 (Homo sapiens, UniProt P04626); assay: HER-2 Kinase Assay; details: for inhibition at 1 µM: test concentration of 1 μM; for IC50: value in parentheses
T4 construct: His6 with thrombin site (N); purchased Proqinase (Freiburg, Germany)
T4 sequence (P04626 679-1255): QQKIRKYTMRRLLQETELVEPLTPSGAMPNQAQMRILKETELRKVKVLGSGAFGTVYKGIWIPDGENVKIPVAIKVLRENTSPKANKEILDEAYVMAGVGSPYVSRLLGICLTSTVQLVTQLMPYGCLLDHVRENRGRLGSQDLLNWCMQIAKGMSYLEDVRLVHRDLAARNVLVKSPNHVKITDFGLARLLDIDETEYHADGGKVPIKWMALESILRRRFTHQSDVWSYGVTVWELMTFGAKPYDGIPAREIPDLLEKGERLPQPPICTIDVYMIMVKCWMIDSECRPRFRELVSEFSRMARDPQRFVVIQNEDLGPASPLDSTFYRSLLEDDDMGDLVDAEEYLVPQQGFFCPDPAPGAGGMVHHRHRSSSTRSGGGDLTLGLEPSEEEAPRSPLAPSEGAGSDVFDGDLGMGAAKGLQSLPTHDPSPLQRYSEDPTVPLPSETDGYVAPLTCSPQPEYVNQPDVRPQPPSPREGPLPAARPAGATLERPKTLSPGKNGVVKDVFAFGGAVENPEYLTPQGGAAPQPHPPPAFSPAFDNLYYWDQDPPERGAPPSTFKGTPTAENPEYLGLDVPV
Outline: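 Read-out was scintillation counting of 33P incorporated into biotinylated polyGluTyr captured on streptavidin plates. Reactions ran 1 h at 30 °C with GST-fused HER-2 residues 679–1255, 1 μM ATP, Mn2+ and Mg2+ at pH 7.5; data given as percent inhibition at 1 μM, with IC50 where determined.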

T1 sequence (P07948 whole entry): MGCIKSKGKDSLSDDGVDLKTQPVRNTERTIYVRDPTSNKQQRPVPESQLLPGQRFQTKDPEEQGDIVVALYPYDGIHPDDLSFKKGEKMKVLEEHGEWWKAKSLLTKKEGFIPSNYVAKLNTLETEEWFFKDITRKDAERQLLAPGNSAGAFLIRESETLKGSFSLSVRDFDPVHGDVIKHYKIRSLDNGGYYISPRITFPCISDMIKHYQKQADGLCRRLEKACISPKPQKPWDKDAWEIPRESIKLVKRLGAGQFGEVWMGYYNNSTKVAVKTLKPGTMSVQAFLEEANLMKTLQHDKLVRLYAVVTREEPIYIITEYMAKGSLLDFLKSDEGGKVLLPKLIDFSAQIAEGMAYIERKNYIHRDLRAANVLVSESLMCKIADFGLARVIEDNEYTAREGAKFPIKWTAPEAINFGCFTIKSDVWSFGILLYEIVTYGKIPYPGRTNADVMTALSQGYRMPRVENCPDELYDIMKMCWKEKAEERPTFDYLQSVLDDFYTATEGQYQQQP

| inhibition at 2 µM (Lyn kinase (human)) [%] | inhibition at 2 µM (c-Src kinase (human)) [%] | IC50 (EGFR) [nM] | inhibition at 1 µM (HER-2) [%] | IC50 (HER-2) [nM] | % Inhibition (Lyn) (Lyn kinase (human); 2 µM) [%] | SMILES |
| --- | --- | --- | --- | --- | --- | --- |
| -7 | 26 | 1030 | – | – | – | COc1ccc(-c2sc3ncnc4c3c2NC(=O)N4c2ccc(F)c(Cl)c2)cc1OC [Cpd 9, 5-(3-chloro-4-fluoro-phenyl)-2-(3,4-dimethoxy-phenyl)-3H,5H-1-thia-3,5,6,8-tetraaza-acenaphthylen-4-one] |
| 68 | 52 | 223 | 54 | 5440 | – | O=C(Nc1ccc(CN2CCOCC2)cc1)c1sc2ncnc3c2c1NC(=O)N3c1ccc(F)cc1Cl [Cpd 16, 5-(2-chloro-4-fluoro-phenyl)-4-oxo-4,5-dihydro-3H-1-thia-3,5,6,8-tetraaza-acenaphthylene-2-carboxylic acid (4-morpholin-4-ylmethyl-phenyl)-amide] |
| -6 | 1 | 19200 | 19 | – | – | COc1cc(NC(=O)c2sc3ncnc4c3c2NC(=O)N4c2cc(OC)c(OC)c(OC)c2Cl)ccc1OCC1CCCCO1 (stereo not drawn) [Cpd 30, 5-(2-chloro-3,4,5-trimethoxy-phenyl)-4-oxo-4,5-dihydro-3H-1-thia-3,5,6,8-tetraaza-acenaphthylene-2-carboxylic acid [3-methoxy-4-(tetrahydro-pyran-2-ylmethoxy)-phenyl]-amide] |
| -7 | 8 | 42700 | 1 | – | – | COc1cc(NC(=O)c2sc3ncnc4c3c2NC(=O)N4c2cc(OC)c(OC)c(OC)c2)ccc1OCC1CCCCO1 (stereo not drawn) [Cpd 31, 5-(3,4,5-trimethoxy-phenyl)-4-oxo-4,5-dihydro-3H-1-thia-3,5,6,8-tetraaza-acenaphthylene-2-carboxylic acid [3-methoxy-4-(tetrahydro-pyran-2-ylmethoxy)-phenyl]-amide] |
| 38 | 32 | 580 | 33 | – | – | CN1CCCC(COc2ccc(NC(=O)c3sc4ncnc5c4c3NC(=O)N5c3ccc(Cl)cc3Cl)cc2)C1 (stereo not drawn) [Cpd 32, 5-(2,4-dichloro-phenyl)-4-oxo-4,5-dihydro-3H-1-thia-3,5,6,8-tetraaza-acenaphthylene-2-carboxylic acid [4-(1-methyl-piperidin-3-ylmethoxy)-phenyl]-amide] |
| 36 | 32 | 1890 | 14 | – | – | COc1cc(N2C(=O)Nc3c(C(=O)Nc4ccc(CN5CCCCC5)cc4)sc4ncnc2c34)c(Cl)cc1Cl [Cpd 33, 5-(2,4-dichloro-5-methoxy-phenyl)-4-oxo-4,5-dihydro-3H-1-thia-3,5,6,8-tetraaza-acenaphthylene-2-carboxylic acid (4-piperidin-1-ylmethyl-phenyl)-amide] |
| 10 | 23 | 5370 | -14 | – | – | COc1cc(N2C(=O)Nc3c(C(=O)Nc4ccc(OCCN5CCOCC5)c(OC)c4)sc4ncnc2c34)c(Cl)cc1Cl [Cpd 34, 5-(2,4-dichloro-5-methoxy-phenyl)-4-oxo-4,5-dihydro-3H-1-thia-3,5,6,8-tetraaza-acenaphthylene-2-carboxylic acid [3-methoxy-4-(2-morpholin-4-yl-ethoxy)-phenyl]-amide] |
| 40 | – | 25 | 60 | 536 | 48.5 | O=C(Nc1ccc(CCN2CCCCC2)cc1)c1sc2ncnc3c2c1NC(=O)N3c1ccc(Oc2ccccc2)c(F)c1 [Cpd 114, 5-(3-fluoro-4-phenoxy-phenyl)-4-oxo-4,5-dihydro-3H-1-thia-3,5,6,8-tetraaza-acenaphthylene-2-carboxylic acid [4-(2-piperidin-1-yl-ethyl)-phenyl]-amide] |
| 37 | 26 | – | – | ~100000 | – | CC(C)(C)OC(=O)NCCCNC(=O)c1sc2ncnc3c2c1NC(=O)N3c1ccc2c(ccn2Cc2cccc(F)c2)c1 [Cpd 141, [3-({5-[1-(3-fluoro-benzyl)-1H-indol-5-yl]-4-oxo-4,5-dihydro-3H-1-thia-3,5,6,8-tetraaza-acenaphthylene-2-carbonyl}-amino)-propyl]-carbamic acid tert-butyl ester] |
